According to patent publication US4820694A, “Modifications of 3-O-demethylmycinose in macrocin and lactenocin” (priority 1986, dated 1989):
Converted amounts (≈) assume the structure as drawn. Read-outs that look alike come from different tables or passages of the source.

Legend:
[1] = system: Streptococcus pyogenes C203; assay: protection of mice experimentally infected with S. pyogenes C203; format: in vivo
Protocol: The formula 1 compounds have shown in vivo antimicrobial activity against experimentally-induced infections in laboratory animals. When two doses of test compound were administered to mice experimentally infected with S. pyrogenes C203, the activity observed was measured as an ED50 value [effective dose in mg/kg to protect 50% of the test animals: see Warren Wick, et al., J. Bacteriol. 81, 233-235 (1961)].
^a mg/kg × 2; doses given 1 and 4 hours postinfection

[2] = system: Pasteurella hemolytica 22C; assay: broth-dilution microtiter MIC test; format: cell-based; details: Pasteurella, 22C
Protocol: (§1) The MIC's in Table III were determined by standard agar-dilution assays. The MIC's in Table IV were obtained using conventional brothdilution microtiter tests.

[3] = system: Pasteurella multocida 68C; assay: broth-dilution microtiter MIC test; format: cell-based; details: Pasteurella multocida, 68C
Protocol: as §1

Streptococcus sp. 19F = assay: broth-dilution microtiter MIC test; format: cell-based; details: Streptococcus, SP.19F
Protocol: as §1

[4] = system: Pasteurella multocida 40G; assay: broth-dilution microtiter MIC test; format: cell-based; details: Pasteurella multocida, 40G
Protocol: as §1

[5] = system: Pasteurella multocida 60A; assay: broth-dilution microtiter MIC test; format: cell-based; details: Pasteurella multocida, 60A
Protocol: as §1

[6] = system: Pasteurella multocida 17E; assay: broth-dilution microtiter MIC test; format: cell-based; details: Pasteurella multocida, 17E
Protocol: as §1

Mycoplasma synoviae 40A = assay: broth-dilution microtiter MIC test; format: cell-based; details: Mycoplasmopsis synoviae, 40A
Protocol: as §1

[7] = system: Pasteurella hemolytica 23C; assay: broth-dilution microtiter MIC test; format: cell-based; details: Pasteurella, 23C
Protocol: as §1

[8] = system: Pasteurella multocida 22A; assay: broth-dilution microtiter MIC test; format: cell-based; details: Pasteurella multocida, 22A
Protocol: as §1

[9] = system: Pasteurella hemolytica 41D; assay: broth-dilution microtiter MIC test; format: cell-based; details: Pasteurella, 41D
Protocol: as §1

[10] = system: Mycoplasma gallisepticum 15E; assay: broth-dilution microtiter MIC test; format: cell-based; details: Mycoplasmoides gallisepticum, 15E
Protocol: as §1

[11] = system: Bordetella bronchiseptica; assay: broth-dilution microtiter MIC test; format: cell-based; details: Bordetella bronchiseptica
Protocol: as §1

[12] = system: Mycoplasma gallisepticum 36H; assay: broth-dilution microtiter MIC test; format: cell-based; details: Mycoplasmoides gallisepticum, 36H
Protocol: as §1

Mycoplasma hyorhinis 29E = assay: broth-dilution microtiter MIC test; format: cell-based; details: Mycoplasma, 29E
Protocol: as §1

[13] = system: Staphylococcus aureus 19C; assay: broth-dilution microtiter MIC test; format: cell-based; details: Staphylococcus aureus, 19C
Protocol: as §1

[14] = system: Mycoplasma gallisepticum 29C; assay: broth-dilution microtiter MIC test; format: cell-based; details: Mycoplasmoides gallisepticum, 29C
Protocol: as §1

[15] = system: Staphylococcus aureus S13E; assay: microbe, parasite or virus in culture; format: cell-based; details: Staphylococcus aureus, S13E
Protocol: as §1

[16] = system: Streptococcus pneumoniae Park I; assay: microbe, parasite or virus in culture; format: cell-based; details: Streptococcus pneumoniae
Protocol: as §1

[17] = system: Pseudomonas aeruginosa X239; assay: standard agar-dilution MIC assay; format: cell-based; details: Pseudomonas aeruginosa, X239
Protocol: as §1

[18] = system: Haemophilus influenzae 76; assay: standard agar-dilution MIC assay; format: cell-based; details: Haemophilus influenzae, 76
Protocol: as §1

[19] = system: Staphylococcus aureus V41; assay: standard agar-dilution MIC assay; format: cell-based; details: Staphylococcus aureus, V41
Protocol: as §1

[20] = system: Klebsiella pneumoniae X68; assay: standard agar-dilution MIC assay; format: cell-based; details: Klebsiella pneumoniae, X68
Protocol: as §1

[21] = system: Staphylococcus aureus X1.1; assay: standard agar-dilution MIC assay; format: cell-based; details: Staphylococcus aureus, X1.1
Protocol: as §1

[22] = system: Streptococcus Group D 9960; assay: standard agar-dilution MIC assay; format: cell-based; details: GROUPD9960, read-out: MIC
Protocol: as §1

[23] = system: Staphylococcus aureus X400; assay: standard agar-dilution MIC assay; format: cell-based; details: Staphylococcus aureus, X400
Protocol: as §1

[24] = system: Streptococcus pyogenes C203; assay: standard agar-dilution MIC assay; format: cell-based; details: Streptococcus pyogenes, C203
Protocol: as §1

[25] = system: Staphylococcus epidermidis EPI1; assay: standard agar-dilution MIC assay; format: cell-based; details: Staphylococcus epidermidis, EPI1
Protocol: as §1

[26] = system: Haemophilus influenzae C.L.; assay: standard agar-dilution MIC assay; format: cell-based; details: Haemophilus influenzae
Protocol: as §1

Escherichia coli EC14 = assay: standard agar-dilution MIC assay; format: cell-based
Protocol: as §1

[27] = system: Streptococcus Group D X66; assay: standard agar-dilution MIC assay; format: cell-based; details: read-out: MIC
Protocol: as §1

[28] = system: Staphylococcus epidermidis 222; assay: standard agar-dilution MIC assay; format: cell-based; details: Staphylococcus epidermidis, 222
Protocol: as §1

[29] = C203, Oral, mice, mg/kg × 2, doses given 1 and 4 hours postinfection, read-out: ED50
[30] = C203, sc, Subcutaneous, mice, mg/kg × 2, doses given 1 and 4 hours postinfection, read-out: ED50
[31] = broth-dilution microtiter, read-out: MIC

Row | SMILES | MIC [3] | MIC (Streptococcus sp. 19F) | MIC [4] | MIC (Mycoplasma synoviae 40A) | MIC [10] | MIC [12] | MIC (Mycoplasma hyorhinis 29E) | MIC [13] | MIC [14] | MIC [15] | MIC [16] | MIC [18] | MIC [19] | MIC [21] | MIC [22] | MIC [23] | MIC [24] | MIC [25] | MIC [27] | MIC [2] | also measured
1 | CCC1OC(=O)CC(O)C(C)C(OC2OC(C)C(O)C(N(C)C)C2O)C(CC=O)CC(C)C(=O)C=CC(C)=CC1COC1OC(C)C(OC(=O)CC(C)C)C(OC(=O)CC(C)C)C1OC (centres unmarked) [Compound 28, 3",4"-Di-O-isovaleryl-lactenocin] | 50 mg/L (≈ 54 µM) | 3.12 mg/L (≈ 3.37 µM) | 50 mg/L (≈ 54 µM) | 12.5 mg/L (≈ 13.5 µM) | 25 mg/L (≈ 27 µM) | 50 mg/L (≈ 54 µM) | 6.25 mg/L (≈ 6.75 µM) | 6.25 mg/L (≈ 6.75 µM) | 1.56 mg/L (≈ 1.68 µM) | 2 mg/L (≈ 2.16 µM) | 0.5 mg/L (≈ 0.54 µM) | 64 mg/L (≈ 69.1 µM) | 2 mg/L (≈ 2.16 µM) | 2 mg/L (≈ 2.16 µM) | 4 mg/L (≈ 4.32 µM) | 4 mg/L (≈ 4.32 µM) | 2 mg/L (≈ 2.16 µM) | 2 mg/L (≈ 2.16 µM) | 4 mg/L (≈ 4.32 µM) | – | ED50 [1, 29]: 21.4 mg/kg; ED50 [1, 30]: > 6.25 mg/kg; MIC [2, 31]: > 50 mg/L; MIC ([5]; broth-dilution microtiter, Avian isolate, read-out: MIC): > 50 mg/L; MIC ([6]; broth-dilution microtiter, Bovine isolate, read-out: MIC): > 50 mg/L; MIC [7, 31]: > 50 mg/L; MIC [8, 31]: > 50 mg/L; MIC [9, 31]: > 50 mg/L; MIC [11, 31]: > 50 mg/L; MIC ([17]; agar-dilution, read-out: MIC): > 128 mg/L; MIC ([20]; agar-dilution, read-out: MIC): > 128 mg/L; MIC ([26]; agar-dilution, Ampicillin-sensitive strain, read-out: MIC): 128 mg/L (≈ 138 µM); MIC (Escherichia coli EC14; agar-dilution, read-out: MIC): > 128 mg/L
2 | CCC1OC(=O)CC(O)C(C)C(OC2OC(C)C(O)C(N(C)C)C2O)C(CC=O)CC(C)C(=O)C=CC(C)=CC1COC1OC(C)C(OC(=O)Cc2ccccc2)C(O)C1OC (centres unmarked) [Compound 30, 4"-O-Phenylacetyl-lactenocin] | 12.5 mg/L (≈ 14.3 µM) | 1.56 mg/L (≈ 1.78 µM) | 25 mg/L (≈ 28.5 µM) | 1.56 mg/L (≈ 1.78 µM) | 12.5 mg/L (≈ 14.3 µM) | 25 mg/L (≈ 28.5 µM) | 1.56 mg/L (≈ 1.78 µM) | 6.25 mg/L (≈ 7.13 µM) | 0.39 mg/L (≈ 0.445 µM) | 0.5 mg/L (≈ 0.571 µM) | 0.5 mg/L (≈ 0.571 µM) | 8 mg/L (≈ 9.13 µM) | 0.5 mg/L (≈ 0.571 µM) | 0.5 mg/L (≈ 0.571 µM) | 1 mg/L (≈ 1.14 µM) | 1 mg/L (≈ 1.14 µM) | 0.25 mg/L (≈ 0.285 µM) | 0.5 mg/L (≈ 0.571 µM) | 0.5 mg/L (≈ 0.571 µM) | 50 mg/L (≈ 57.1 µM) | MIC [5]: 25 mg/L (≈ 28.5 µM); MIC [6]: 25 mg/L (≈ 28.5 µM); MIC [7]: 25 mg/L (≈ 28.5 µM); MIC [8]: 25 mg/L (≈ 28.5 µM); MIC [9]: 50 mg/L (≈ 57.1 µM); MIC [11]: > 50 mg/L; MIC [17]: > 128 mg/L; MIC [28]: 0.25 mg/L (≈ 0.285 µM); MIC [20]: > 128 mg/L; MIC [26]: 8 mg/L (≈ 9.13 µM); MIC (Escherichia coli EC14): > 128 mg/L
3 | CCC1OC(=O)CC(O)C(C)C(OC2OC(C)C(O)C(N(C)C)C2O)C(CC=O)CC(C)C(=O)C=CC(C)=CC1COC1OC(C)C(O)C(OC(=O)Cc2ccccc2)C1OC (centres unmarked) [Compound 32, 3"-O-Phenylacetyl-lactenocin] | 12.5 mg/L (≈ 14.3 µM) | 1.56 mg/L (≈ 1.78 µM) | 25 mg/L (≈ 28.5 µM) | 1.56 mg/L (≈ 1.78 µM) | 12.5 mg/L (≈ 14.3 µM) | 25 mg/L (≈ 28.5 µM) | 1.56 mg/L (≈ 1.78 µM) | 1.56 mg/L (≈ 1.78 µM) | 0.195 mg/L (≈ 0.223 µM) | 1 mg/L (≈ 1.14 µM) | 0.5 mg/L (≈ 0.571 µM) | 8 mg/L (≈ 9.13 µM) | 1 mg/L (≈ 1.14 µM) | 0.5 mg/L (≈ 0.571 µM) | 1 mg/L (≈ 1.14 µM) | 2 mg/L (≈ 2.28 µM) | 0.25 mg/L (≈ 0.285 µM) | 0.5 mg/L (≈ 0.571 µM) | 1 mg/L (≈ 1.14 µM) | 25 mg/L (≈ 28.5 µM) | ED50 ([1]; C203, sc): 4.4 mg/kg; MIC [5]: 25 mg/L (≈ 28.5 µM); MIC [6]: 25 mg/L (≈ 28.5 µM); MIC [7]: 25 mg/L (≈ 28.5 µM); MIC [8]: 25 mg/L (≈ 28.5 µM); MIC [9]: 25 mg/L (≈ 28.5 µM); MIC [11]: > 50 mg/L; MIC [17]: > 128 mg/L; MIC [28]: 0.25 mg/L (≈ 0.285 µM); MIC [20]: > 128 mg/L; MIC [26]: 8 mg/L (≈ 9.13 µM); MIC (Escherichia coli EC14): > 128 mg/L
4 | CCC1OC(=O)CC(O)C(C)C(OC2OC(C)C(O)C(N(C)C)C2O)C(CC=O)CC(C)C(=O)C=CC(C)=CC1COC1OC(C)C(OC(=O)COc2ccccc2)C(OC(=O)COc2ccccc2)C1OC (centres unmarked) [Compound 36, 3",4"-Di-O-phenoxyacetyl-lactenocin] | 25 mg/L (≈ 24.4 µM) | 0.78 mg/L (≈ 0.76 µM) | 50 mg/L (≈ 48.7 µM) | 1.56 mg/L (≈ 1.52 µM) | 12.5 mg/L (≈ 12.2 µM) | 12.5 mg/L (≈ 12.2 µM) | 6.25 mg/L (≈ 6.09 µM) | 1.56 mg/L (≈ 1.52 µM) | 0.39 mg/L (≈ 0.38 µM) | 2 mg/L (≈ 1.95 µM) | 1 mg/L (≈ 0.974 µM) | 32 mg/L (≈ 31.2 µM) | 2 mg/L (≈ 1.95 µM) | 2 mg/L (≈ 1.95 µM) | 2 mg/L (≈ 1.95 µM) | 2 mg/L (≈ 1.95 µM) | 0.5 mg/L (≈ 0.487 µM) | 2 mg/L (≈ 1.95 µM) | 2 mg/L (≈ 1.95 µM) | 50 mg/L (≈ 48.7 µM) | ED50 [1, 29]: > 100 mg/kg; ED50 [1, 30]: 4.3 mg/kg; MIC [5]: 50 mg/L (≈ 48.7 µM); MIC [6]: 50 mg/L (≈ 48.7 µM); MIC [7]: 25 mg/L (≈ 24.4 µM); MIC [8]: 50 mg/L (≈ 48.7 µM); MIC [9]: 25 mg/L (≈ 24.4 µM); MIC [11, 31]: > 50 mg/L; MIC ([17]; agar-dilution, read-out: MIC): > 128 mg/L; MIC [28]: 0.5 mg/L (≈ 0.487 µM); MIC ([20]; agar-dilution, read-out: MIC): > 128 mg/L; MIC [26]: 32 mg/L (≈ 31.2 µM); MIC (Escherichia coli EC14; agar-dilution, read-out: MIC): > 128 mg/L
